Values after ≈ are worked out from the molar mass of the structure shown.
The compounds below were run on Mycobacterium tuberculosis H37Rv strains (assay: In vitro assay for antimicrobial susceptibility (microplate Alamar blue MIC)). Details: Mycobacterium tuberculosis, H37RV, 7H9, Alamar blue, inhibition ≧90%; read-out: MIC (μg/mL) against H37Rv.
Type: cell-based

Going from `CC(C)/N=c1\cc2n(-c3ccc(F)cc3)c3ccccc3nc-2cc1Nc1ncccn1` [TBI-1053, 5-(4-Fluorophenyl)-3-(1-methylethyl)imino-2-(pyrimidin-2-yl)amino-3,5-dihydrophenazine] to `COC1CCC(/N=c2\cc3n(-c4ccc(F)cc4)c4ccccc4nc-3cc2Nc2ccccn2)CC1` (centres unmarked) [TBI-1078, 5-(4-Fluorophenyl)-3-(4-methoxycyclohexyl)imino-2-(2-pyridyl)amino-3,5-dihydrophenazine], the MIC rises from 0.015 µg/mL (≈ 0.0353 µM) to 0.028 µg/mL (≈ 0.0567 µM) (1.9-fold).

In the case of `COC1CCC(/N=c2\cc3n(-c4ccc(F)cc4)c4ccccc4nc-3cc2Nc2ncccc2[N+](=O)[O-])CC1` (centres unmarked) [TBI-1083, 5-(4-Fluorophenyl)-3-(4-methoxycyclohexyl)imino-2-(3-nitro-2-pyridyl)amino-3,5-dihydrophenazine], the MIC is reported as 5.81 µg/mL (≈ 10.8 µM).

Same assay, conditions: Mycobacterium tuberculosis, H37RV, in vitro, Mycobacterium tuberculosis H37Rv strains; read-out: MIC (μg/mL) against H37Rv

First: Cc1cncc(Nc2cc3nc4ccccc4n(-c4ccc(F)cc4)c-3c/c2=N\C2CCCCC2)c1 [TBI-1029, 5-(4-Fluorophenyl)-3-cyclohexylimino-2-(5-methyl-3-pyridyl)amino-3,5-dihydrophenazine]
Second: Cc1ccc(-n2c3c/c(=N\C4CCCCC4)c(Nc4cncc(C)c4)cc-3nc3ccccc32)cc1 [TBI-329, 5-(4-Methylphenyl)-3-cyclohexylimino-2-(5-methyl-3-pyridyl)amino-3,5-dihydrophenazine]
The MIC of the first is 3.4-fold lower: 0.027 µg/mL (≈ 0.0565 µM) for the first, 0.092 µg/mL (≈ 0.194 µM) for the second.

Compared with `COC1CCC(/N=c2\cc3n(-c4ccc(F)cc4)c4ccc(C#N)cc4nc-3cc2Nc2ccc(C)nc2)CC1` (centres unmarked) [TBI-1068, 8-Cyano-5-(4-fluorophenyl)-3-(4-methyoxycyclohexyl)imino-2-(6-methyl-3-pyridyl)amino-3,5-dihydrophenazine], `COC1CCC(/N=c2\cc3n(-c4ccc(Cl)cc4)c4cc(F)ccc4nc-3cc2Nc2ccc(C)nc2)CC1` (centres unmarked) [TBI-925] is 2.1-fold lower in MIC: 0.165 µg/mL (≈ 0.31 µM) for the first, 0.078 µg/mL (≈ 0.144 µM) for the second.

Going from `CC(=O)Nc1ccc(Nc2cc3nc4ccccc4n(-c4ccc(F)cc4)c-3c/c2=N\C2CCCCC2)cn1` [TBI-916, 5-(4-Fluorophenyl)-3-cyclohexylimino-2-(6-acetamino-3-pyridyl)amino-3,5-dihydrophenazine] to `Cc1ccc(-n2c3c/c(=N\C4CCCCC4)c(Nc4cccnc4)cc-3nc3ccccc32)cc1` [TBI-333, 5-(4-Methylphenyl)-3-cyclohexylimino-2-(3-pyridyl)amino-3,5-dihydrophenazine], the MIC rises from 0.014 µg/mL (≈ 0.0269 µM) to 0.061 µg/mL (≈ 0.133 µM) (4.4-fold).

First: COc1ncccc1Nc1cc2nc3ccccc3n(-c3ccc(NC(C)=O)cc3)c-2c/c1=N\C1CCC(OC)CC1 (centres unmarked) [TBI-1222, 5-(4-Acetamidophenyl)-3-(4-methoxycyclohexyl)imino-2-(2-methoxy-3-pyridyl)amino-3,5-dihydrophenazine]
Second: COc1ncccc1Nc1cc2nc3ccccc3n(-c3ccc(C)cc3)c-2c/c1=N\C1CCC(O)CC1 (centres unmarked) [TBI-332, 5-(4-Methylphenyl)-3-(4-hydroxycyclohexyl)imino-2-(2-methoxy-3-pyridyl)amino-3,5-dihydrophenazine]
The MIC of the first is 3.1-fold higher: 0.925 µg/mL (≈ 1.64 µM) for the first, 0.294 µg/mL (≈ 0.581 µM) for the second.

Compared with `Cc1ccc(-n2c3c/c(=N\C4CCC4)c(Nc4cccnc4C)cc-3nc3ccccc32)cc1` [TBI-347, 5-(4-Methylphenyl)-3-cyclobutylimino-2-(2-methyl-3-pyridyl)amino-3,5-dihydrophenazine], `COC1CCC(/N=c2\cc3n(-c4ccc(F)cc4)c4ccccc4nc-3cc2Nc2cccnc2C)CC1` (centres unmarked) [TBI-1013, 5-(4-Fluorophenyl)-3-(4-methoxycyclohexyl)imino-2-(2-methyl-3-pyridyl)amino-3,5-dihydrophenazine] is 2.2-fold lower in MIC: 0.042 µg/mL (≈ 0.0943 µM) for the first, 0.019 µg/mL (≈ 0.0374 µM) for the second.

Compared with `COc1ncccc1Nc1cc2nc3ccccc3n(-c3ccccc3OC(F)(F)F)c-2c/c1=N\C(C)C` [TBI-1046, 5-(2-Trifluoromethoxyphenyl)-3-(1-methylethyl)imino-2-(2-methoxy-3-pyridyl)amino-3,5-dihydrophenazine], `Cc1ncccc1Nc1cc2nc3ccccc3n(-c3ccc(Br)cc3)c-2c/c1=N\C(C)C` [TBI-507, 5-(4-Bromophenyl)-3-(1-methylethyl)imino-2-(2-methyl-3-pyridyl)amino-3,5-dihydrophenazine] is 7.1-fold lower in MIC: 0.44 µg/mL (≈ 0.847 µM) for the first, 0.062 µg/mL (≈ 0.124 µM) for the second.

Compared with `CN1CCC(/N=c2\cc3n(-c4ccc(OC(F)(F)F)cc4)c4ccccc4nc-3cc2Nc2cccnc2)CC1` [TBI-159, 5-(4-Trifluoromethoxyphenyl)-3-(N-methyl-4-piperidyl)imino-2-(3-pyridyl)amino-3,5-dihydrophenazine], `FC(F)(F)Oc1cccc(-n2c3c/c(=N\C4CCOCC4)c(Nc4cccnc4)cc-3nc3ccccc32)c1` [TBI-1020, 5-(3-Trifluoromethoxyphenyl)-3-(4-tetrahydropyranyl)imino-2-(3-pyridyl)amino-3,5-dihydrophenazine] is 4.3-fold lower in MIC: 0.25 µg/mL (≈ 0.459 µM) for the first, 0.058 µg/mL (≈ 0.109 µM) for the second.

Going from `Cc1ccc(-n2c3c/c(=N\C4CCN(C)CC4)c(Nc4ccc(C)nc4)cc-3nc3ccccc32)cc1` [TBI-319, 5-(4-Methylphenyl)-3-(N-methyl-4-piperidyl)imino-2-(6-methyl-3-pyridyl)amino-3,5-dihydrophenazine] to `Cc1ccc(Nc2cc3nc4ccccc4n(-c4ccc(Br)cc4)c-3c/c2=N\C2CCOCC2)cn1` [TBI-504, 5-(4-Bromophenyl)-3-(4-tetrahydropyranyl)imino-2-(6-methyl-3-pyridyl)amino-3,5-dihydrophenazine], the MIC falls from 0.173 µg/mL (≈ 0.354 µM) to 0.044 µg/mL (≈ 0.0814 µM) (3.9-fold).

Going from `COc1ncccc1Nc1cc2nc3cc(F)ccc3n(-c3ccc(OC(F)(F)F)cc3)c-2c/c1=N\C1CCCCC1` [TBI-862, 8-Fluoro-5-(4-trifluoromethoxyphenyl)-3-cyclohexylimino-2-(2-methoxy-3-pyridyl)amino-3,5-dihydrophenazine] to `COC1CCC(/N=c2\cc3n(-c4ccc(OC(F)(F)F)cc4)c4ccc(F)cc4nc-3cc2Nc2ccc(C)nc2)CC1` (centres unmarked) [TBI-866, 8-Fluoro-5-(4-trifluoromethoxyphenyl)-3-(4-methoxycyclohexyl)imino-2-(6-methyl-3-pyridyl)amino-3,5-dihydrophenazine], the MIC falls from 0.088 µg/mL (≈ 0.152 µM) to 0.027 µg/mL (≈ 0.0456 µM) (3.3-fold).

Going from `COc1ccc(Nc2cc3nc4ccccc4n(-c4ccc(F)cc4)c-3c/c2=N\C(C)C)cn1` [TBI-930] to `Cc1ccc(Nc2cc3nc4ccccc4n(-c4ccccc4)c-3c/c2=N\C(C)C)cn1` [TBI-067, 5-Phenyl-3-(1-methylethyl)imino-2-(6-methyl-3-pyridyl)amino-3,5-dihydrophenazine], the MIC falls from 0.494 µg/mL (≈ 1.09 µM) to 0.048 µg/mL (≈ 0.114 µM) (10-fold).

Going from `CC(C)/N=c1\cc2n(-c3cccc(Cl)c3)c3ccccc3nc-2cc1Nc1cccnc1` [TBI-810, 5-(3-Chlorophenyl)-3-(1-methylethyl)imino-2-(3-pyridyl)amino-3,5-dihydrophenazine] to `CC(C)/N=c1\cc2n(-c3cccc([S+](C)[O-])c3)c3ccccc3nc-2cc1Nc1cccnc1` (centres unmarked) [TBI-455, 5-(3-Methylsulfinylphenyl)-3-(1-methylethyl)imino-2-(3-pyridyl)amino-3,5-dihydrophenazine], the MIC rises from 0.103 µg/mL (≈ 0.234 µM) to 0.5 µg/mL (≈ 1.07 µM) (4.9-fold).

Going from `Cc1ccc(Nc2cc3nc4ccccc4n(-c4ccccc4)c-3c/c2=N\C2CC2)cn1` [TBI-095] to `COc1ccc(Nc2cc3nc4ccccc4n(-c4ccccc4)c-3c/c2=N\C2CCC(OC)CC2)cn1` (centres unmarked) [TBI-514, 5-Phenyl-3-(4-methoxycyclohexyl)imino-2-(6-methoxy-3-pyridyl)amino-3,5-dihydrophenazine], the MIC rises from 0.048 µg/mL (≈ 0.115 µM) to 0.243 µg/mL (≈ 0.481 µM) (5.1-fold).

Compared with `Cc1ncccc1Nc1cc2nc3ccccc3n(-c3ccccc3)c-2c/c1=N\C1CCC(O)CC1` (centres unmarked) [TBI-092], `Clc1ccccc1-n1c2c/c(=N\C3CC3)c(Nc3cccnc3)cc-2nc2ccccc21` [TBI-892, 5-(2-Chlorophenyl)-3-cyclopropylimino-2-(3-pyridyl)amino-3,5-dihydrophenazine] is 18-fold lower in MIC: 0.5 µg/mL (≈ 1.05 µM) for the first, 0.028 µg/mL (≈ 0.0639 µM) for the second.

Going from `COC1CCC(/N=c2\cc3n(-c4ccc(Cl)c(Cl)c4)c4cc(F)ccc4nc-3cc2Nc2ccc(C)nc2)CC1` (centres unmarked) [TBI-897, 7-Fluoro-5-(3,4-dichlorophenyl)-3-(4-methoxycyclohexyl)imino-2-(6-methyl-3-pyridyl)amino-3,5-dihydrophenazine] to `COC1CCC(/N=c2\cc3n(-c4ccc(C)cc4)c4ccccc4nc-3cc2Nc2cncc(C)c2)CC1` (centres unmarked) [TBI-330, 5-(4-Methylphenyl)-3-(4-methoxycyclohexyl)imino-2-(5-methyl-3-pyridyl)amino-3,5-dihydrophenazine], the MIC falls from 0.25 µg/mL (≈ 0.434 µM) to 0.035 µg/mL (≈ 0.0695 µM) (7.1-fold).

`COc1ncccc1Nc1cc2nc3ccccc3n(-c3ccc(Cl)cc3Cl)c-2c/c1=N\C1CC1` [TBI-370, 5-(2,4-Dichlorophenyl)-3-cyclopropylimino-2-(2-methoxy-3-pyridyl)amino-3,5-dihydrophenazine] and `COc1ncccc1Nc1cc2nc3ccccc3n(-c3cccc(OC(F)(F)F)c3)c-2c/c1=N\C1CCC(OC)CC1` (centres unmarked) [TBI-1039, 5-(3-Trifluoromethoxyphenyl)-3-(4-methoxycyclohexyl)imino-2-(2-methoxy-3-pyridyl)amino-3,5-dihydrophenazine] are within 1.5-fold of each other in MIC: 0.052 µg/mL (≈ 0.104 µM) for the first, 0.059 µg/mL (≈ 0.1 µM) for the second.

Compared with `COCC(COC)/N=c1\cc2n(-c3ccc(C)cc3)c3ccccc3nc-2cc1Nc1cccnc1OC` [TBI-373, 5-(4-Methylphenyl)-3-(1,3-dimethoxyisopropyl)imino-2-(2-methoxy-3-pyridyl)amino-3,5-dihydrophenazine], `COCC(COC)/N=c1\cc2n(-c3cccc(Cl)c3)c3ccccc3nc-2cc1Nc1ccc(C)nc1` [TBI-80C, 5-(3-Chlorophenyl)-3-(1,3-dimethoxyisopropyl)imino-2-(6-methyl-3-pyridyl)amino-3,5-dihydrophenazine] is 2.6-fold higher in MIC: 0.125 µg/mL (≈ 0.245 µM) for the first, 0.327 µg/mL (≈ 0.636 µM) for the second.

Compared with `Cc1ccc(-n2c3c/c(=N\CCN4CCOCC4)c(Nc4cccnc4C)cc-3nc3ccccc32)cc1` [TBI-324, 5-(4-Methylphenyl)-3-(2-morpholinoethyl)imino-2-(2-methyl-3-pyridyl)amino-3,5-dihydrophenazine], `Clc1ccc(-n2c3c/c(=N\C4CC4)c(Nc4cncc(Br)c4)cc-3nc3ccccc32)cc1` [TBI-882, 5-(4-Chlorophenyl)-3-cyclopropylimino-2-(5-bromo-3-pyridyl)amino-3,5-dihydrophenazine] is 8-fold lower in MIC: 0.12 µg/mL (≈ 0.238 µM) for the first, 0.015 µg/mL (≈ 0.029 µM) for the second.

Same assay, conditions: in vitro, Mycobacterium tuberculosis H37Rv strains

With `COc1ncccc1Nc1cc2nc3ccc(F)cc3n(-c3ccc(Cl)cc3)c-2c/c1=N\C(C)C` [TBI-741, 5-(4-Chlorophenyl)-3-(1-methylethyl)imino-2-(2-methoxy-3-pyridyl)amino-7-fluoro-3,5-dihydrophenazine] the “MIC (μg/mL) against H37Rv” value was 0.035 µg/mL (≈ 0.0717 µM).
